Our source for the IC50 values is patent publication US10137110B2, “1-cyclohexyl-2-phenylaminobenzimidazoles as mIDH1 inhibitors for the treatment of tumors” (Bayer Pharma Aktiengesellschaft, priority 2014, dated 2018).

Experiment [1] deals with IDH1 R132H enzyme (Homo sapiens (Human), UniProt O75874, R132H). Put plainly: Mutant IDH1 R132H biochemical assay. To be noted: NADPH consumption, luminescent readout; 1.5 nM enzyme, 250 μM α-KG, 1 μM NADPH, 30 minutes, 32° C.; test range 0.002-10 μM. How it is done: mIDH1 catalyzes the NADPH-dependent reduction of alpha-ketoglutarate (α-KG) to (2R)-2-hydroxyglutarate (2-HG). NADPH consumption was measured by luminescent readout.
The biochemical reactions were performed at 32° C. in 384-well plates using a reaction volume of 41 μl and the following assay buffer conditions: 50 mM Tris pH 7.5, 100 mM NaCl, 20 mM MgCl2, 0.05% BSA, 0.01% Brij, 1 μM NADPH, and 250 μM α-KG. […] Test compounds were used in a concentration range between 0.002 and 10 μM. The final DMSO concentration was 2.4%.
The reaction was incubated for 30 minutes, then 40 μl of detection mix (0.75 μg/ml Luciferase, 0.02 U/ml Oxidoreductase, 4 μg/ml FMN, 2 μl/ml Decanal/Ethanol, 50 mM Tris pH 7.5, 0.5% Glycerin, 0.01% Tween-20, 0.05% BSA) was added. Luminescence was measured on a luminescent reader (10 seconds measuring time, 1 second integration period, 30% sensitivity). The decrease in luminescence is proportional to mIDH1 activity. IC50 values are determined by interpolation from plots of relative luminescence versus inhibitor concentration.

The target of experiment [2] is mutated isocitrate dehydrogenase (mIDH) protein overexpressed in LN229 R132H cells (Homo sapiens (Human), UniProt O75874, R132H). The experiment is described as follows: Mutant IDH1 cellular assay (2-HG in medium of LN229 R132H cells). It counts as cell-based. The settings on record: 24 hours, fluorescence readout. How it is done:
Mutant IDH1 Cellular Assay
Levels of (2R)-2-hydroxyglutarate (2HG) were measured in medium of a cell line with overexpression of mutated isocitrate dehydrogenase (mIDH) protein. mIDH catalyzes the NADPH-dependent reduction of alpha-ketoglutarate to 2-HG. Cells (LN229 R132H, Mohrenz et al., Apoptosis (2013) 18:1416-1425) were grown in DMEM containing 10% FCS. They were harvested by trypsin and seeded into 96-well plates. Cells were incubated overnight at 37° C. in 5% CO2. The next day test compounds were added to each cell well. The final concentration of DMSO was 0.1% and DMSO controls were included. The plates were then placed in an incubator for 24 hours.
2-HG was measured according to Balss et al. (Acta Neuropathol (2012) 124: 883-891). Briefly, HClO4 was added to each well and the plates were centrifuged. Aliquots are removed and incubated with hydroxyglutarate dehydrogenase (HGDH), diaphorase, NAD+, and resazurin. The conversion of resazurin to resorufin was detected by fluorescence spectroscopy at Ex 540 nm Em 600 nm. The increase in fluorescence is proportional to 2-HG production. IC50 values are determined by interpolation from plots of relative fluorescence vs inhibitor concentration.

SMILES strings stand for the structures. pIC50: −log10 of the molar value.

Chain of IDH1 R132H enzyme (O75874 whole entry R132H): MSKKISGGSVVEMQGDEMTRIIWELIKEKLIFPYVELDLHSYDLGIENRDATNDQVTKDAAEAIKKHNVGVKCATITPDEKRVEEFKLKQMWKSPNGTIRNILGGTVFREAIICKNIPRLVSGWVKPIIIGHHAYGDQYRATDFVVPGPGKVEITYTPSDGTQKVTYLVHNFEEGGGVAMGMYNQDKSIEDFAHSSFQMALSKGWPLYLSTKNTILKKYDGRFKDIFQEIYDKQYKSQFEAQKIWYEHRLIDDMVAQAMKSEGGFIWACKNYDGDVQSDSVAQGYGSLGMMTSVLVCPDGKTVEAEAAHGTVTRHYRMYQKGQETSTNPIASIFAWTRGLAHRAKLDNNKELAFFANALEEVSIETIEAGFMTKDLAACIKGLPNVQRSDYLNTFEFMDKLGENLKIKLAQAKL
Chain of mutated isocitrate dehydrogenase (mIDH) protein overexpressed in LN229 R132H cells (O75874 whole entry R132H): as above

Take `Cc1noc(C)c1-c1ccc2c(c1)nc(Nc1ccc(OC(F)(F)F)cc1)n2[C@H]1C[C@@H](C)CC(C)(C)C1` (racemic) [Example 2-1, (±) 5-(3,5-dimethyl-1,2-oxazol-4-yl)-N-[4-(trifluoromethoxy)phenyl]-1-[(cis)-3,3,5-trimethylcyclohexyl]-1H-benzimidazol-2-amine]: the pIC50 in experiment [1] was 6.92; in experiment [2], 6.05.
Take `C[C@@H]1C[C@H](n2c(Nc3ccc(OC(F)(F)F)cc3)nc3cc(-c4cccc(C(=O)O)c4)ccc32)CC(C)(C)C1` (racemic) [Example 2-2, (±) 3-(2-{[4-(trifluoromethoxy)phenyl]amino}-1-[(cis)-3,3,5-trimethylcyclohexyl]-1H-benzimidazol-5-yl)benzoic acid]: the pIC50 was 7.15 in experiment [1] and 6.44 in experiment [2].
`C[C@@H]1C[C@H](n2c(Nc3ccc(OC(F)(F)F)cc3)nc3cc(-c4ccc(C(=O)O)cc4)ccc32)CC(C)(C)C1` (racemic) [Example 2-3, (±) 4-(2-{[4-(trifluoromethoxy)phenyl]amino}-1-[(cis)-3,3,5-trimethylcyclohexyl]-1H-benzimidazol-5-yl)benzoic acid] gave a pIC50 in experiment [1] of 6.34.
Compound `COC(=O)c1cccc(-c2ccc3c(c2)nc(Nc2ccc(OC(F)(F)F)cc2)n3[C@H]2C[C@@H](C)CC(C)(C)C2)c1` (racemic) [Example 2-15, (±) Methyl 3-(2-{[4-(trifluoromethoxy)phenyl]amino}-1-[(cis)-3,3,5-trimethylcyclohexyl]-1H-benzimidazol-5-yl)benzoate] gave a pIC50 in experiment [1] of 5.82.
On the same count and under the same terms, next, `COC(=O)c1ccc(-c2ccc3c(c2)nc(Nc2ccc(OC(F)(F)F)cc2)n3[C@H]2C[C@@H](C)CC(C)(C)C2)cc1` (racemic) [Example 2-18, (±) Methyl 4-(2-{[4-(trifluoromethoxy)phenyl]amino}-1-[(cis)-3,3,5-trimethylcyclohexyl]-1H-benzimidazol-5-yl)benzoate]: 5.40.
The same measure, in the same setting: next, `C[C@H]1C[C@H](n2c(Nc3ccc(OC(F)(F)F)cc3)nc3cc(-c4nnn[nH]4)ccc32)CC(C)(C)C1` (racemic) [Example 2-27, (±) 5-(1H-tetrazol-5-yl)-N-[4-(trifluoromethoxy)phenyl]-1-[(trans)-3,3,5-trimethylcyclohexyl]-1H-benzimidazol-2-amine]: 5.74; `C[C@@H]1C[C@H](n2c(Nc3ccc(OC(F)(F)F)cc3)nc3cc(-c4cc(F)c(O)c(F)c4)ccc32)CC(C)(C)C1` (racemic) [Example 2-33, (±) 2,6-difluoro-4-(2-{[4-(trifluoromethoxy)phenyl]amino}-1-[(cis)-3,3,5-trimethylcyclohexyl]-1H-benzimidazol-5-yl)phenol]: 6.17; `Cc1cc(-c2ccc3c(c2)nc(Nc2ccc(OC(F)(F)F)cc2)n3[C@H]2C[C@@H](C)CC(C)(C)C2)cc(C)c1O` (racemic) [Example 2-34, (±) 2,6-dimethyl-4-(2-{[4-(trifluoromethoxy)phenyl]amino}-1-[(cis)-3,3,5-trimethylcyclohexyl]-1H-benzimidazol-5-yl)phenol]: 6.74.
The same measure, in the same setting: the same measure for `CCOc1noc(C)c1-c1ccc2c(c1)nc(Nc1ccc(OC(F)(F)F)cc1)n2[C@H]1C[C@@H](C)CC(C)(C)C1` (racemic) [Example 2-35, (±) 5-(3-ethoxy-5-methyl-1,2-oxazol-4-yl)-N-[4-(trifluoromethoxy)phenyl]-1-[(cis)-3,3,5-trimethylcyclohexyl]-1H-benzimidazol-2-amine]: 6.62; for `Cc1noc(C)c1-c1ccc2c(c1)nc(Nc1ccc(OC(F)(F)F)cc1)n2[C@H]1C[C@@H](C)CC(C)(C)C1` (single isomer, unassigned) [Example 2-1-1, 5-(3,5-dimethyl-1,2-oxazol-4-yl)-N-[4-(trifluoromethoxy)phenyl]-1-[(cis)-3,3,5-trimethylcyclohexyl]-1H-benzimidazol-2-amine]: 6.62; for `Cc1noc(C)c1-c1ccc2c(c1)nc(Nc1ccc(OC(F)(F)F)cc1)n2[C@H]1C[C@@H](C)CC(C)(C)C1` (single isomer, unassigned) [Example 2-1-2, 5-(3,5-dimethyl-1,2-oxazol-4-yl)-N-[4-(trifluoromethoxy)phenyl]-1-[(cis)-3,3,5-trimethylcyclohexyl]-1H-benzimidazol-2-amine]: 7.15.
For the compound `C[C@H]1C[C@@H](n2c(Nc3ccc(OC(F)(F)F)cc3)nc3cc(-c4cn[nH]c4)ccc32)CC(C)(C)C1` (stereo in doubt) [Example 2-4], the pIC50 in experiment [1] is 7.10; in experiment [2], 6.22.
For the compound `Cc1n[nH]c(C)c1-c1ccc2c(c1)nc(Nc1ccc(OC(F)(F)F)cc1)n2[C@@H]1C[C@H](C)CC(C)(C)C1` (stereo in doubt) [Example 2-5-1], the pIC50 in experiment [1] is 6.17.
Regarding `Cc1n[nH]c(C)c1-c1ccc2c(c1)nc(Nc1ccc(OC(F)(F)F)cc1)n2[C@H]1C[C@@H](C)CC(C)(C)C1` (stereo in doubt) [Example 2-5-2], the results for the pIC50 in experiment [1] and in experiment [2] were 5.81 and 5.82, respectively.
In the same order, the values of `Cc1n[nH]c(C)c1-c1ccc2c(c1)nc(Nc1ccc(OC(F)(F)F)cc1)n2[C@@H]1C[C@H](C)CC(C)(C)C1` (stereo in doubt) [Example 2-5] are 7.05 and 5.40.
Consider `Cc1n[nH]cc1-c1ccc2c(c1)nc(Nc1ccc(OC(F)(F)F)cc1)n2[C@@H]1C[C@H](C)CC(C)(C)C1` (stereo in doubt) [Example 2-7], for which the figures for the negative-log IC50 (pIC50) in experiment [1] and in experiment [2] were 6.96 and 5.92, respectively.
In the same order, the values of `C[C@H]1C[C@@H](n2c(Nc3ccc(OC(F)(F)F)cc3)nc3cc(-c4ccn[nH]4)ccc32)CC(C)(C)C1` (stereo in doubt) [Example 2-8] are 6.89 and 5.70.
For `C[C@H]1C[C@@H](n2c(Nc3ccc(OC(F)(F)F)cc3)nc3cc(-c4cnoc4)ccc32)CC(C)(C)C1` (stereo in doubt) [Example 2-9], in that order: 6.74 and 5.70.
`Cc1cc(-c2ccc3c(c2)nc(Nc2ccc(OC(F)(F)F)cc2)n3[C@@H]2C[C@H](C)CC(C)(C)C2)n(C)n1` (stereo in doubt) [Example 2-12-1] had a pIC50 in experiment [1] of 5.37.
For `Cc1cc(-c2ccc3c(c2)nc(Nc2ccc(OC(F)(F)F)cc2)n3[C@H]2C[C@@H](C)CC(C)(C)C2)n(C)n1` (stereo in doubt) [Example 2-12-2], the pIC50 in experiment [1] was 5.80.
On the same count and under the same terms, the same measure for `C[C@H]1C[C@@H](n2c(Nc3ccc(OC(F)(F)F)cc3)nc3cc(-c4cnn(C)c4)ccc32)CC(C)(C)C1` (stereo in doubt) [Example 2-13-1]: 6.62; for `C[C@@H]1C[C@H](n2c(Nc3ccc(OC(F)(F)F)cc3)nc3cc(-c4cnn(C)c4)ccc32)CC(C)(C)C1` (stereo in doubt) [Example 2-13-2]: 6.00; for `COc1cc(-c2ccc3c(c2)nc(Nc2ccc(OC(F)(F)F)cc2)n3[C@@H]2C[C@H](C)CC(C)(C)C2)ccn1` (stereo in doubt) [Example 2-14]: 5.89.
The same measure, in the same setting: next, `C[C@H]1C[C@@H](n2c(Nc3ccc(OC(F)(F)F)cc3)nc3cc(-c4cn(C)nc4C(F)(F)F)ccc32)CC(C)(C)C1` (stereo in doubt) [Example 2-16-1]: 5.11.
Same read-out and setting: next, `C[C@@H]1C[C@H](n2c(Nc3ccc(OC(F)(F)F)cc3)nc3cc(-c4cn(C)nc4C(F)(F)F)ccc32)CC(C)(C)C1` (stereo in doubt) [Example 2-16-2]: 6.11; `C[C@H]1C[C@@H](n2c(Nc3ccc(OC(F)(F)F)cc3)nc3cc(-c4cn(C)nc4C(F)(F)F)ccc32)CC(C)(C)C1` (stereo in doubt) [Example 2-16]: 6.54; `C[C@H]1C[C@@H](n2c(Nc3ccc(OC(F)(F)F)cc3)nc3cc(-c4ccc(C(N)=O)cc4)ccc32)CC(C)(C)C1` (stereo in doubt) [Example 2-17]: 6.36.
In experiment [2], `C[C@H]1C[C@@H](n2c(Nc3ccc(OC(F)(F)F)cc3)nc3cc(-c4ccnn4C)ccc32)CC(C)(C)C1` (stereo in doubt) [Example 2-20] gave a pIC50 of 5.40.
Take `Cc1nnc(-c2ccc3c(c2)nc(Nc2ccc(OC(F)(F)F)cc2)n3C2CC(C)(C)CC(C)(C)C2)o1` [Example 2-25, 5-(5-Methyl-1,3,4-oxadiazol-2-yl)-1-(3,3,5,5-tetramethylcyclohexyl)-N-[4-(trifluoromethoxy)phenyl]-1H-benzimidazol-2-amine]: the pIC50 in experiment [1] was 6.89.

The term pIC50 denotes the IC50 on a negative log10 scale, so that one unit is a factor of ten. The low end stands for a large IC50, the high end for a small IC50.
